Laboratory results reported in patent US20240226005A1, “NANO- AND MICRO-FORMULATIONS” (Huxley Health Inc., priority 2023, published 2024).
“Also recorded” adds a separate entry of the source.

Legend:
[1] = tested on: L2, SW982, HCT116, 231 cells; experiment: Cytotoxicity assay (MTT) on four cell lines; format: cell-based, rat, human; settings: 48 h, 10- to 10000-fold dilutions of 1 mg/g
Experimental: Four different cell lines were used for the evaluation of the tested formulations and unformulated bufotenin. • L2:Rat lung cells (Normal) https://www.atcc.org/products/ccl-149 • SW982: The human synovial sarcoma cells https://www.atcc.org/products/htb-93 • HCT116: The human colon cancer cells https://www.atcc.org/products/ccl-247 • 231: The human breast cancer cells https://www.atcc.org/products/crm-htb-26
Cytotoxicity assay: The effect of the NEs on cell viability was measured by MTT assay following the method by Mosmann and colleagues. Briefly, the cells were seeded in a 96 well micro titer plate (100 μL per well) with replications. After 24 h, cells were treated with 50 μL of the analyte at four different dilutions (10,100,1000, and 10000-fold), added directly to wells with culture media. The starting concentration for Kolliphor-Bf-SNEDDS, Kolliphor-Bfa-t-SNEDDSand unformulated bufoteninin DMSO were 1 mg·g^−1. After incubation for 48 h, the media was discarded. 100 μL of 0.5 mg·mL^−1 MTT stock solution was added to each well and incubated for 4 h at 37° C. The obtained formazan crystals were solubilized with DMSO, and the absorbance was measured at 570 nm using a microplate reader (SpectraMax M5e, Molecular Devices, USA). Cell viability (%) was calculated as a ratio of absorbance (A570) in treated cells to absorbance in control cells (intact cells without treatment) (A570).

[2] = tested on: human glioma U251 GBM cells; experiment: Cellular uptake, flow cytometry and fluorescence microscopy; format: cell-based; settings: flow cytometry and fluorescence imaging
Experimental: Cellular uptake studies: The human glioma U251 GBM cells were cultured at 5×10^4 cells per well in 12 plates using EMEM media supplemented with 10% FBS, 0.5% PenStrep and 1% w/non-essential amino acids (NEAA); then, washed with 0.05% trypsin. The cells were cells were incubated overnight at 37° C. in a humidified 5% CO2 atmosphere. The cells were treated with NEs loaded with bufotenine and Nile Red dye diluted to 0.1 mg/ml in PBS. Untreated cells were used as a negative control a long with a solution of unformulated API and Nile Red. This was done to serve as a sort of a positive control against the negative control of the untreated cells. After 24 h exposure, cells were washed twice with PBS and then collected in PBS-EDTA media (2 mM). The flow cytometry was performed using a BD C6 Flow Cytometry apparatus at a wavelength of 488 nm laser. For each experiment 10,000 cells were gated per sample and each sample was performed in triplicate. These cells prepared as such were used for fluorescence analysis. Fluorescence images were taken using a Leica CRT 6500 at the desired magnification using Texas Red Set (Leica TX2 ET Set) filter and exciting the samples using a continuous wave Ar+ laser at 488 nm.

CN(C)CCc1c[nH]c2ccc(O)cc12 [unformulated bufotenin, 5-Hydroxy-N,N-dimethyltryptamine]
cytotoxicity / cell viability [1]: no effect on their viability
cellular uptake (in words) [2]: no unformulated bufotenin penetrated the glioma cells; also recorded: negligible
